# Assay results as given in PubChem BioAssay (NCI).
# “And” between values parts separate entries of the source, which are not always exact repeats. Identical values can stand only once.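 A five-concentration, 48-hour dose response in 96-well plates underlies each endpoint, interpolated linearly between surrounding concentrations. The concentration for 50% growth inhibition is given as GI50. Definition used: TGI = concentration required for complete inhibition of growth.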
# Experiments:
# Test in all cases: DTP human tumour cell line panel, 48 h
# 786-0 renal = system: 786-0 renal
# A498 renal = system: A498 renal
# A549 NSCLC = system: A549 NSCLC
# ACHN renal = system: ACHN renal
# BT-549 breast = system: BT-549 breast
# CCRF-CEM leukemia = system: CCRF-CEM leukemia
# COLO 205 colon = system: COLO 205 colon
# EKVX NSCLC = system: EKVX NSCLC
# HCC-2998 colon = system: HCC-2998 colon
# HCT-116 colon = system: HCT-116 colon
# HCT-15 colon = system: HCT-15 colon
# HL-60(TB) leukemia = system: HL-60(TB) leukemia
# HOP-62 NSCLC = system: HOP-62 NSCLC
# HOP-92 NSCLC = system: HOP-92 NSCLC
# HS 578T breast = system: HS 578T breast
# HT29 colon = system: HT29 colon
# IGROV1 ovarian = system: IGROV1 ovarian
# K-562 leukemia = system: K-562 leukemia
# KM12 colon = system: KM12 colon
# LOX IMVI melanoma = system: LOX IMVI melanoma
# M14 melanoma = system: M14 melanoma
# MALME-3M melanoma = system: MALME-3M melanoma
# MCF7 breast = system: MCF7 breast
# MDA-MB-231 breast = system: MDA-MB-231 breast
# MDA-MB-435 = system: MDA-MB-435
# MOLT-4 leukemia = system: MOLT-4 leukemia
# NCI-H226 lung = system: NCI-H226 lung
# NCI-H23 lung = system: NCI-H23 lung
# NCI-H460 lung = system: NCI-H460 lung
# NCI-H522 lung = system: NCI-H522 lung
# NCI/ADR-RES ovarian = system: NCI/ADR-RES ovarian
# OVCAR-3 ovarian = system: OVCAR-3 ovarian
# OVCAR-4 ovarian = system: OVCAR-4 ovarian
# OVCAR-5 ovarian = system: OVCAR-5 ovarian
# OVCAR-8 ovarian = system: OVCAR-8 ovarian
# PC-3 prostate = system: PC-3 prostate
# RPMI-8226 leukemia = system: RPMI-8226 leukemia
# RXF 393 renal = system: RXF 393 renal
# SF-268 CNS = system: SF-268 CNS
# SF-295 CNS = system: SF-295 CNS
# SF-539 CNS = system: SF-539 CNS
# SK-MEL-2 melanoma = system: SK-MEL-2 melanoma
# SK-MEL-28 melanoma = system: SK-MEL-28 melanoma
# SK-MEL-5 melanoma = system: SK-MEL-5 melanoma
# SK-OV-3 ovarian = system: SK-OV-3 ovarian
# SN12C renal = system: SN12C renal
# SNB-19 CNS = system: SNB-19 CNS
# SNB-75 CNS = system: SNB-75 CNS
# SR leukemia = system: SR leukemia
# SW-620 colon = system: SW-620 colon
# T-47D breast = system: T-47D breast
# TK-10 renal = system: TK-10 renal
# U251 CNS = system: U251 CNS
# UACC-62 melanoma = system: UACC-62 melanoma
# UO-31 renal = system: UO-31 renal
smiles,measurement,setting,value
COC(=O)[C@@H](C)C[C@H](Cc1ccccc1)NC(=O)c1csc([C@@H](C[C@H](C(C)C)N(C)C(=O)[C@@H](NC(=O)[C@H]2CCCCN2C)C(C)C)OC(C)=O)n1,GI50,786-0 renal,0.331 nM and 2.5 nM
same,TGI,786-0 renal,24500 nM
same,GI50,A498 renal,0.176 nM and < 2.5 nM
same,TGI,A498 renal,0.694 nM and < 2.5 nM
same,GI50,A549 NSCLC,0.457 nM and 2.5 nM
same,TGI,A549 NSCLC,> 25000 nM
same,GI50,ACHN renal,0.417 nM and 2.5 nM
same,TGI,ACHN renal,> 25000 nM
same,GI50,BT-549 breast,0.284 nM and < 2.5 nM
same,TGI,BT-549 breast,18.3 nM and < 2.5 nM
same,GI50,CCRF-CEM leukemia,0.425 nM and 2.5 nM
same,TGI,CCRF-CEM leukemia,> 25000 nM
same,GI50,COLO 205 colon,< 2.5 nM
same,TGI,COLO 205 colon,< 2.5 nM
same,GI50,EKVX NSCLC,0.617 nM and 3.56 nM
same,TGI,EKVX NSCLC,> 25000 nM
same,GI50,HCC-2998 colon,0.356 nM and 2.5 nM
same,TGI,HCC-2998 colon,> 25000 nM
same,TGI,HCT-116 colon,> 25000 nM
same,GI50,HCT-15 colon,0.31 nM and 2.5 nM
same,TGI,HCT-15 colon,> 25000 nM
same,GI50,HL-60(TB) leukemia,0.187 nM and < 2.5 nM
same,TGI,HL-60(TB) leukemia,0.627 nM and < 2.5 nM
same,GI50,HOP-62 NSCLC,0.396 nM and 2.5 nM
same,TGI,HOP-62 NSCLC,> 25000 nM
same,GI50,HOP-92 NSCLC,0.692 nM and < 2.5 nM
same,GI50,HS 578T breast,0.641 nM
same,TGI,HT29 colon,> 25000 nM
same,GI50,IGROV1 ovarian,0.308 nM and 2.5 nM
same,TGI,IGROV1 ovarian,> 25000 nM
same,TGI,K-562 leukemia,> 25000 nM
same,TGI,KM12 colon,> 25000 nM
same,GI50,LOX IMVI melanoma,0.695 nM and 2.5 nM
same,TGI,LOX IMVI melanoma,> 25000 nM
same,GI50,M14 melanoma,0.134 nM
same,TGI,M14 melanoma,0.531 nM
same,GI50,MALME-3M melanoma,8670 nM
same,TGI,MALME-3M melanoma,> 25000 nM
same,TGI,MCF7 breast,> 25000 nM
same,GI50,MDA-MB-231 breast,0.506 nM and 2.5 nM
same,TGI,MDA-MB-231 breast,11.6 nM
same,GI50,MDA-MB-435,< 0.1 nM
same,TGI,MDA-MB-435,0.135 nM and < 2.5 nM
same,GI50,MOLT-4 leukemia,0.5 nM and 2.5 nM
same,TGI,MOLT-4 leukemia,> 25000 nM
same,GI50,NCI-H226 lung,2.5 nM
same,TGI,NCI-H226 lung,> 25000 nM
same,GI50,NCI-H23 lung,0.395 nM and 2.5 nM
same,TGI,NCI-H23 lung,> 25000 nM
same,TGI,NCI-H460 lung,> 25000 nM
same,GI50,NCI-H522 lung,0.178 nM
same,TGI,NCI-H522 lung,0.897 nM
same,GI50,NCI/ADR-RES ovarian,3.83 nM and 2.5 nM
same,TGI,NCI/ADR-RES ovarian,> 25000 nM
same,GI50,OVCAR-3 ovarian,< 0.1 nM
same,TGI,OVCAR-4 ovarian,> 25000 nM
same,GI50,OVCAR-5 ovarian,0.369 nM and 2.5 nM
same,TGI,OVCAR-5 ovarian,> 25000 nM
same,GI50,OVCAR-8 ovarian,0.519 nM and 2.5 nM
same,TGI,OVCAR-8 ovarian,> 25000 nM
same,TGI,PC-3 prostate,> 25000 nM
same,TGI,RPMI-8226 leukemia,7540 nM
same,GI50,RXF 393 renal,2.5 nM
same,TGI,RXF 393 renal,> 25000 nM
same,GI50,SF-268 CNS,0.671 nM and 2.5 nM
same,TGI,SF-268 CNS,> 25000 nM
same,TGI,SF-295 CNS,13100 nM
same,GI50,SF-539 CNS,0.294 nM and < 2.5 nM
same,TGI,SF-539 CNS,2.09 nM and < 2.5 nM
same,GI50,SK-MEL-2 melanoma,0.256 nM
same,GI50,SK-MEL-28 melanoma,2.5 nM
same,TGI,SK-MEL-28 melanoma,> 25000 nM
same,GI50,SK-MEL-5 melanoma,< 0.1 nM
same,TGI,SK-MEL-5 melanoma,3.01 nM and < 2.5 nM
same,TGI,SK-OV-3 ovarian,> 25000 nM
same,GI50,SN12C renal,0.567 nM and 2.5 nM
same,TGI,SN12C renal,> 25000 nM
same,TGI,SNB-19 CNS,> 25000 nM
same,TGI,SNB-75 CNS,> 25000 nM
same,TGI,SR leukemia,> 25000 nM
same,TGI,SW-620 colon,> 25000 nM
same,GI50,T-47D breast,> 25000 nM
same,TGI,T-47D breast,> 25000 nM
same,GI50,TK-10 renal,22.3 nM and 2.5 nM
same,TGI,TK-10 renal,> 25000 nM
same,GI50,U251 CNS,0.396 nM and 2.5 nM
same,TGI,U251 CNS,> 25000 nM
same,TGI,UACC-62 melanoma,> 25000 nM
same,GI50,UO-31 renal,0.932 nM and 2.5 nM
same,TGI,UO-31 renal,> 25000 nM
